According to article PMC10865871, “Homologous acetone carboxylases select Fe(II) or Mn(II) as the catalytic cofactor” (mBio, 2023):

Legend:
[1] = biological target: T1, A. aromaticum AC (acetone carboxylase, (αβγ)2) (Aromatoleum aromaticum, UniProt Q5P1N4+Q5P1N5); experiment: […] Moessbauer; EPR of Mn(II)-reconstituted enzyme; format: binding; settings: 1 mM AMP, pH 7.6, 57Fe(II)-reconstituted, 80 K (Moessbauer); 10 mM AMP, 1 mM MgCl2 (EPR)
T1 construct: gene acxB; recombinant in E. coli BL21(DE3), pET-Duet vectors; N-terminal 6-His tag on beta subunit; (αβγ)2 heterohexamer; with Acetone carboxylase gamma subunit
T1 sequence (Q5P1N4 1-774): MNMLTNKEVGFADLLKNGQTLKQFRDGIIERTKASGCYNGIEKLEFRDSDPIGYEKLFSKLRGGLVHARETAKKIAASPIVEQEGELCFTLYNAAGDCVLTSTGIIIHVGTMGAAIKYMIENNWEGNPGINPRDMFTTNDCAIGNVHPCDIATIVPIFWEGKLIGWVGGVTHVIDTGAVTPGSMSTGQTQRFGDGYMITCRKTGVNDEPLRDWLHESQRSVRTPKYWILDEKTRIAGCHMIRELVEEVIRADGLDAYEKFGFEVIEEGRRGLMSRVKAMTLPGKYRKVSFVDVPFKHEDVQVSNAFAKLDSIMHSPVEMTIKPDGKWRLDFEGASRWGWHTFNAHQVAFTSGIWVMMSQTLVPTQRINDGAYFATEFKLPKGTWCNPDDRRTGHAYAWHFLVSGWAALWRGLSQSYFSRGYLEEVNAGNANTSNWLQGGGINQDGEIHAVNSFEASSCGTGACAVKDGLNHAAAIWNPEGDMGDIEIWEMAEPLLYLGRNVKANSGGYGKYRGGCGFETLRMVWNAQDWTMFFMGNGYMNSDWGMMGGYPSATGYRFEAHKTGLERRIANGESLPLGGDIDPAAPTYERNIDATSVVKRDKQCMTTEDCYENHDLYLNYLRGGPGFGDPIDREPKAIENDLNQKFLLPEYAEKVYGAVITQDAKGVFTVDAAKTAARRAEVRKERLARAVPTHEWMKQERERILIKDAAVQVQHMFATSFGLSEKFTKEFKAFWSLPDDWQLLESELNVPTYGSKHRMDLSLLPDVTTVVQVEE
T1 sequence (Q5P1N5 1-716): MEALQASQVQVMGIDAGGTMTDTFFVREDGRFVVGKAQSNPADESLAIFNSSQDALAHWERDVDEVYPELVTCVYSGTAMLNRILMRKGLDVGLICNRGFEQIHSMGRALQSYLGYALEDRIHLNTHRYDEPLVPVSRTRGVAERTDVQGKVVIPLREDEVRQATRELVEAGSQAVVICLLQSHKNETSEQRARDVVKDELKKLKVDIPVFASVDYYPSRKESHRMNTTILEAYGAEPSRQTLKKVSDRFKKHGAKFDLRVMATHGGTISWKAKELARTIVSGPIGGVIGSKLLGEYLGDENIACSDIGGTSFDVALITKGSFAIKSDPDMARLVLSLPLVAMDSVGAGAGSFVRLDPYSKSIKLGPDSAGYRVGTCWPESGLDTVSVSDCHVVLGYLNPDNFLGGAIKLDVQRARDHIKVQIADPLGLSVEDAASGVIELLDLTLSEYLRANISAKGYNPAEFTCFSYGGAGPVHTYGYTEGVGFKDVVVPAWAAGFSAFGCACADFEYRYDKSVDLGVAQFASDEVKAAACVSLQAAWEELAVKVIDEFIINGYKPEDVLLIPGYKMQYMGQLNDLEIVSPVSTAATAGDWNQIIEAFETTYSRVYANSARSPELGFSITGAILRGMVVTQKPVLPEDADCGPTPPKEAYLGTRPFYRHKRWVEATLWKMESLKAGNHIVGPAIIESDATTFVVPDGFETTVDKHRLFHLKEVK
T1 sequence (Q5P1N3 1-168 partner): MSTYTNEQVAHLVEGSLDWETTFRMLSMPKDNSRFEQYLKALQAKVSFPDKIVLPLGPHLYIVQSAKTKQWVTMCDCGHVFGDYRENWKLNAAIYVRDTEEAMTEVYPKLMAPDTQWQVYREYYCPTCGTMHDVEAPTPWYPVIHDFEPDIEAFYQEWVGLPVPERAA

[2] = biological target: T2, X. autotrophicus AC (acetone carboxylase, (αβγ)2) (Xanthobacter versatilis, UniProt Q8RM03+Q8RM04); experiment: EPR of active-site Mn(II); […] Moessbauer; format: binding; settings: 10 mM AMP, 1 mM MgCl2, pH 7.6, 12 K (EPR); Mn(II)-bound enzyme
T2 construct: gene acxB; recombinant in E. coli BL21(DE3), pET-Duet vectors; N-terminal 6-His tag on beta subunit; (αβγ)2 heterohexamer; AMP site in beta, metal site in alpha; with Acetone carboxylase gamma subunit
T2 sequence (Q8RM03 1-776): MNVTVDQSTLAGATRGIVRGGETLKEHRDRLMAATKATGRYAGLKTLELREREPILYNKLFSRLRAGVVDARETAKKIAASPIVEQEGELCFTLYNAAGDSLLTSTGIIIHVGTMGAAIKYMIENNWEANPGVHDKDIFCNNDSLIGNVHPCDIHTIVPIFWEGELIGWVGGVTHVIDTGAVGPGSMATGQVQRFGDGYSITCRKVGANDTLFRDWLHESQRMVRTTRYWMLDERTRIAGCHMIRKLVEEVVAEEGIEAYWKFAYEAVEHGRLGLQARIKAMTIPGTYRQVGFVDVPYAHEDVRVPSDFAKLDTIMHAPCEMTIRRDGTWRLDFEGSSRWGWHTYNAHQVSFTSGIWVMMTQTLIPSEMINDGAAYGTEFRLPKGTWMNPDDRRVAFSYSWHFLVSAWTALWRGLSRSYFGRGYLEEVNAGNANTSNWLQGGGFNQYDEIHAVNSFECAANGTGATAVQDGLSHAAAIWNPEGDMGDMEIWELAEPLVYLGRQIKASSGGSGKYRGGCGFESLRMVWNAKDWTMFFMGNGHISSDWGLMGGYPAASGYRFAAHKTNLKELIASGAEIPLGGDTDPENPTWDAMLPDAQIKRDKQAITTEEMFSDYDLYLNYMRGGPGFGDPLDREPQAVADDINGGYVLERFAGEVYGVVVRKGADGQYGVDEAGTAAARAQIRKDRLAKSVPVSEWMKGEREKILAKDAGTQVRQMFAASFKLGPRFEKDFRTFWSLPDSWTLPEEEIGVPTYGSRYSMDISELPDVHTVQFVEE
T2 sequence (Q8RM04 1-717): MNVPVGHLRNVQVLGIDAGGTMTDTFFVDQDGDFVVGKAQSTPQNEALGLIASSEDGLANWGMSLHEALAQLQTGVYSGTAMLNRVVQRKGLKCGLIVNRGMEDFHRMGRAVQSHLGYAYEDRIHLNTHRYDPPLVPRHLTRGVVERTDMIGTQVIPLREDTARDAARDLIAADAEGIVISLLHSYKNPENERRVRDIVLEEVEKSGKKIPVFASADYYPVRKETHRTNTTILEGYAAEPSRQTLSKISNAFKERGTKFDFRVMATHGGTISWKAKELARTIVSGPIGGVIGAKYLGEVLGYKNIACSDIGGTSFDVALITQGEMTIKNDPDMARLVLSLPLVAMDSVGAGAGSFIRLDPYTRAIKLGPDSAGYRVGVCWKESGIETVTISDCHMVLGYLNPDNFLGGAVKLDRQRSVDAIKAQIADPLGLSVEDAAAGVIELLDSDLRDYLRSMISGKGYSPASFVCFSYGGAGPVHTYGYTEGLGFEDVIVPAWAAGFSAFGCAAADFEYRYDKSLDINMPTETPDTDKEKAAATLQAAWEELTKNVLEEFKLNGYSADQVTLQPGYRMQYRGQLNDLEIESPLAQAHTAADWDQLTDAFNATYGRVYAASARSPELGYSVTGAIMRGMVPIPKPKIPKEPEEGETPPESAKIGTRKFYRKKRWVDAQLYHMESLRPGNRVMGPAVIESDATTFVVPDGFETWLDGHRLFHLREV
T2 sequence (Q8RM02 2-168 partner): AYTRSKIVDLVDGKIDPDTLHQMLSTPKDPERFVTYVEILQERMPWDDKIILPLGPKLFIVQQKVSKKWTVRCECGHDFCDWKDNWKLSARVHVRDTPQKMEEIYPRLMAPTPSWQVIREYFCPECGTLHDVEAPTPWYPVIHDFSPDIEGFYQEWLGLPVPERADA

Nc1ncnc2c1ncn2[C@@H]1O[C@H](COP(=O)(O)O)[C@@H](O)[C@H]1O [AMP]
57Fe Moessbauer; EPR of Mn(II)-reconstituted enzyme [1]: three of which (blue, red, and orange) were affected by the addition of AMP | EPR of active-site Mn(II); 57Fe Moessbauer [2]: Upon the addition of MgAMP, the apparent Mn(II) signal sharpened and intensified
